“Also recorded” adds a separate entry of the source.
Key:
Aβ = target: T1, Aβ (Homo sapiens, UniProt P05067); test: CPBBA displacement of radiolabeled 22R-hydroxycholesterol from Aβ (Example II); assay type: binding; settings: 100 μM unlabeled compound; 50 μM Aβ
T1 construct: Aβ1-42 peptide was purchased from American Peptide Co; purchased American Peptide Co. (Sunnyvale, Calif.)
Description: At the end of the incubation time, samples were separated by 1.5% agarose (Type I-B) gel electrophoresis under native conditions and transferred to nitrocellulose membrane (Schleicher&Schuell, Keene, N.H.) in 10×SSC buffer. The membrane was exposed to tritium-sensitive screen and analyzed by phosphoimaging using the Cyclone Storage phosphor system (Packard BioScience). Image-densitometric analysis was performed using the OptiQuant software (Packard BioScience). […] Low molecular weight unincorporated 22R-hydroxycholesterol and derivatives are separated and eliminated during electrophoresis.

[1] = system: PC12 cells (rat pheochromocytoma neurons); test: MTT cytotoxicity assay, Aβ-induced neurotoxicity in PC12 cells (Example II); assay type: cell-based; settings: for neuroprotective effect compared with SP222: 0.1 μM Aβ; for neuroprotection against Aβ-induced neurotoxicity (structure/activity discussion): PC12 cells
Description: (§1) PC12 cells (rat pheochromocytoma neurons) from ATCC (Manassas, Va.) were cultured at 37° C. and 5% CO2 in RPMI 1640 medium devoid of glutamine and supplemented with 10% fetal bovine serum and 5% horse serum. Yao Z, Drieu K and Papadopoulos V., The Gingko biloba extract EGb 761 rescues PC12 neuronal cells from β-amyloid-induced cell death by inhibiting the formation of (3-amyloid-derived diffusible neurotoxic ligands, Brain Res, 889, 181-190 (2001). Cells were seeded in 96-well plates (8×10^4 cells/well). After an overnight period of incubation, increasing concentrations of aggregated Aβ (0.1, 1 and 10 μM) were added to the cells in the presence or absence of the indicated concentrations of the SP compounds to be tested. After 72-hours incubation time various parameters, markers of cell viability, were determined. Mouse MA-10 tumor Leydig cells were maintained at 37° C. in DMEM/Ham's F12 (Biofluids, Rockville, Md.) medium supplemented with 5% heat-inactivated fetal calf serum and 2.5% horse serum in 5% CO2. Cells were plated on 96-well plates at the density of 2.5×10^4 cells/well for overnight. The cells were stimulated with the indicated concentrations of the various SP compounds in 0.2 ml/well serum-free medium for 2 hours. The culture medium was collected and tested for progesterone production by radioimmunoassay.
The cellular toxicity of Aβ was assessed using the 3-(4,5-dimethylthiazol-2-yl)-2,5-diphenyl tetrazolium bromide (MTT) assay (Trevigen, Gaithersburg, Md.). Briefly, 10 μl of the MTT solution were added to the cells cultured in 100 μl medium. After an incubation period of 4 hours, 100 μl of detergent were added and cells were incubated overnight at 37° C. Formazan blue formation was quantified at 600 nm and 690 nm using the Victor quantitative detection spectrophotometer (EGG-Wallac, Gaithersburg, Md.) and the results expressed as (DO600-DO690). […] Liu Y and Schubert D, Steroid hormones block amyloid fibril-induced 3-(4,5-dimethylthiazol-2-yl)-2,5-diphenyltetrazolium bromide (MTT) formazan exocytosis: relationship to neurotoxicity, J. Neurochem., 19, 1639-1662 (1998). For that reason, additional cytotoxicity and cell viability assays were used.
Yao et al., J. Neurochem., 83, 1110-1119 (2002); and Yao et al., The Gingko biloba extract EGb 761 rescues PC12 neuronal cells from β-amyloid-induced cell death by inhibiting the formation of β-amyloid-derived diffusible neurotoxic ligands, Brain Res., 889, 181-190 (2001). To stay close to the concentrations of Aβ present in AD brain, 0.1-10 μM concentrations of Aβ were used. The compounds tested for their neuroprotective properties were examined at 30 and 50 μM concentrations (FIGS. 9-15).

PC12 cells = test: Cellular ATP levels (ATPLite-M) in Aβ-treated PC12 cells; assay type: cell-based, rat; settings: 0.1 and 1.0 μM Aβ
Description: as §1
Cellular ATP concentrations were measured using the ATPLite-M™ luminescence assay (Packard BioSciences Co.). For this assay, cells were cultured on black 96-well ViewPlate™ and the ATP concentrations were measured on a TopCount NXT™ counter (Packard BioSciences Co.) following the recommendations of the manufacturer.

rat PC12 neuronal cells = test: MTT assay, Aβ1-42-induced cytotoxicity in PC12 cells (Example I); settings: MTT
human NT2 cells = test: Trypan blue dye exclusion assay, NT2 cells; assay type: cell-based; settings: 25 μM steroid, 72 hours
Description: (§2) Rat PC12 cells were cultured as previously described. Yao et al., Brain Res. 889, 181-190 (2001). Human NT2 precursor (Ntera2/D1 teratocarcinoma) cells were obtained from Stratagene (La Jolla, Calif.) and cultured following the instructions of the supplier. Differentiated human NT2 neurons (NT2N) were obtained after treatment of the NT2 precursor cells with retinoic acid. Andrews, Dev. […] Aβ was dissolved in media and used either in the aggregated (left overnight at 4° C.) or soluble (containing oligomers such as dimers and tetramers) forms examined by electrophoresis as previously described. Yao et al., Brain Res. (2001). […] Id. Cell viability was measured using the trypan blue exclusion method as previously described. Id. In brief, for these studies, cells were treated for 72 hours with steroids in the presence or absence of increasing concentrations of Aβ. At the end of the incubation, the cells were washed three times with PBS and incubated for 15 minutes with 0.1% trypan blue stain solution at room temperature. After washing three times with PBS, 0.1 N NaOH was added to the cells and trypan blue staining was quantified using the Victor quantitative detection spectrophotometer (EGG-Wallac, Gaithersburg, Md.) at 450 nm. Cell protein levels were determined in the same samples by the method of Bradford (Bradford, Anal. Biochem., 72, 248-254 (1976)), where coomassie blue staining is detected at 590 nm.
(§3) The results obtained from using MTT assay were further confirmed with the trypan blue dye exclusion assay. […] Levels of viability were measured using the trypan blue assay as described under Materials and Methods. Results are expressed as fold trypan blue stained cells per total cell protein over control untreated cells. Results shown are means±SD (n=6-12).

rat PC12 cells = test: Trypan blue dye exclusion assay, PC12 cells (Example I); assay type: cell-based; settings: 100 μM steroid, 72 hours
Description: as §2, §3

NT2 cells [2] = test: NT2 cell differentiation, phase-contrast morphology; assay type: cell-based, human; settings: 25 μM; 3, 6 and 12 days (comparators 6 days)
NT2 cells [3] = test: BrdU assay, NT2 cell proliferation; assay type: cell-based, human; settings: 50 μM
[4] = MTT, compounds at 30 and 50 μM, 72 hours

T1 sequence (P05067 672-713): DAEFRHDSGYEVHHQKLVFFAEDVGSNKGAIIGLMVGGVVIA

**Q.** Which “displacement of radiolabeled 22R-hydroxycholesterol binding to Aβ” value (“displacement” for short) (Aβ) does the source give for `CC1CCC2(OC1)OC1CC3C4CC=C5CC(O)C(O)CC5(C)C4CCC3(C)C1C2C` [SP227, (22R,25ζ)-(20α)-spirost-5-en-(2α,3ζ)-diol] here?
**A.** 38%

**Q.** `C[C@H]1CC[C@@]2(OC1)O[C@H]1C[C@H]3[C@@H]4CC=C5C[C@@H](O)CC[C@]5(C)[C@H]4CC[C@]3(C)[C@H]1[C@@H]2C` [SP235, (22R,25S)-(20α)-spirost-5-en-3β-ol] was tested. Which “neuroprotective effect compared with SP222” value ([1]; MTT) did it give?
**A.** significantly more robust effect than SP222

**Q.** What about the “neuroprotection against 0.1 μM Aβ-induced neurotoxicity” value [1, 4] of the same compound?
**A.** displayed neuroprotective activity

**Q.** And the “neuroprotection against 10 μM Aβ-induced neurotoxicity” value [1, 4]?
**A.** exhibited neuroprotective activity

**Q.** What about the “neuroprotection against Aβ-induced neurotoxicity (structure/activity discussion)” value [1] of the same compound?
**A.** limited neuroprotection acting only against 0.1 μM Aβ

**Q.** What about the “reversal of Aβ-induced decrease in ATP levels” value (PC12 cells) of the same compound?
**A.** did not block

**Q.** Which results are given for `C[C@]12CC[C@H](O)CC1=CC[C@@H]1[C@@H]2CC[C@]2(C)C(=O)CC[C@@H]12` [DHEA, 5-androsten-3β-ol-17-one]?
**A.** PC12 cell viability, steroid alone at 100 μM (rat PC12 neuronal cells; 100 μM steroid): positive effect on cell viability; rescue from Aβ1-42-induced cell death (human NT2 cells): had no effect; rescue from Aβ25-35-induced cell death (human NT2 cells): Neither 22R-hydroxycholesterol nor DHEA could rescue; rescue from Aβ1-42-induced cell death (rat PC12 cells): protected; rescue from Aβ25-35-induced cell death (rat PC12 cells): Neither 22R-hydroxycholesterol nor DHEA could rescue; effect on NT2 cell morphology (differentiation) (NT2 cells [2]): could not be replicated

**Q.** “(20ζ)-25ζ-methyl-N-acetyl-(22R,26)-azacyclofurost-5-en-3ζ-ol [SP226]” was tested. Which “neuroprotection against Aβ-induced neurotoxicity (structure/activity discussion)” value [1] did it give?
**A.** did not offer neuroprotection

**Q.** And the “displacement” value (Aβ)?
**A.** 65%

**Q.** With `C[C@H]1CC[C@@]2(OC1)O[C@H]1C[C@H]3[C@@H]4CC=C5CC(O)CC[C@]5(C)[C@H]4CC[C@]3(C)[C@H]1[C@@H]2C` (stereo partly drawn) [SP231, (22R,25S)-(20ζ)-spirost-5-en-3ζ-ol] as the compound, how does the “neuroprotection against Aβ-induced neurotoxicity (structure/activity discussion)” value [1] read?
**A.** only SP235 is protective

**Q.** How did the “neuroprotection against Aβ-induced neurotoxicity (structure/activity discussion)” value [1] turn out when `CC1CCC2(OC1)OC1CC3C4CC=C5CC(OC(=O)c6ccccc6)CCC5(C)C4CCC3(C)C1C2C` [SP232, (22R,25ζ)-(20α)-spirost-5-en-3β-yl benzoate] was run?
**A.** not effective in neuroprotection

**Q.** Which “neuroprotection against 0.1 μM Aβ-induced neurotoxicity” value [1, 4] does the source give for “(20α)-25ζ-methyl-N-paratoluenesulfonyl-(22R,26)-azacyclofurost-5-en-3ζ-yl paratoluenesulfonate [SP229]” here?
**A.** displayed neuroprotective activity

**Q.** For “(20ζ)-26-acetylamino-(22ζ)-ethoxyfurost-5-en-3ζ-yl acetate [SP228]”, which “neuroprotection against 0.1 μM Aβ-induced neurotoxicity” value [1, 4] is on record?
**A.** displayed neuroprotective activity

**Q.** With `CC(C)CCC[C@@H](C)[C@H]1CC[C@H]2[C@@H]3CC=C4C[C@@H](O)CC[C@]4(C)[C@H]3CC[C@]12C` [cholesterol, 5-cholesten-3β-ol] as the compound, how does the “effect on toxicity of low concentrations of Aβ” value (rat PC12 neuronal cells) read?
**A.** accentuated the toxic effect of low concentrations of Aβ

**Q.** And the “neuroprotective effect against Aβ-induced neurotoxicity” value (rat PC12 neuronal cells; Aβ1-42)?
**A.** could not be replicated

**Q.** And the “effect on NT2 cell morphology (differentiation)” value (NT2 cells [2])?
**A.** could not be replicated

**Q.** `CC(=O)OC1CC[C@@]2(C)C(=CC[C@H]3[C@@H]4CC(OC(C)=O)[C@H]([C@H](C)C(CCC(C)CN(C(C)=O)C(C)=O)OC(C)=O)[C@@]4(C)CC[C@@H]32)C1` (some centres unmarked) [SP237, 26-diacetylamino-(22ζ)-acetoxy-(16ζ)-acetoxy-cholest-5-en-yl acetate] was tested. Which “neuroprotection against 0.1 μM Aβ-induced neurotoxicity” value [1, 4] did it give?
**A.** displayed neuroprotective activity

**Q.** What about the “displacement” value (Aβ) of the same compound?
**A.** 46%

**Q.** What does the source list for “(22R,25S)-(20α)-spirost-5-en-3β-yl succinate [SP236]”?
**A.** neuroprotective effect compared with SP222 ([1]; MTT): significantly more robust effect than SP222; neuroprotection against 0.1 μM Aβ-induced neurotoxicity [1, 4]: displayed neuroprotective activity; neuroprotection against 1 μM Aβ-induced neurotoxicity [1, 4]: maintained their neuroprotective properties; neuroprotection against 10 μM Aβ-induced neurotoxicity [1, 4]: exhibited neuroprotective activity; neuroprotection against Aβ-induced neurotoxicity (structure/activity discussion) [1]: active against higher Aβ concentrations; reversal of Aβ-induced decrease in ATP levels (PC12 cells): able to reverse; also recorded: blocked, although in part

**Q.** `CC(=O)[C@H]1CC[C@H]2[C@@H]3CCC4=CC(=O)CC[C@]4(C)[C@H]3CC[C@]12C` [progesterone] was tested. Which “effect on NT2 cell morphology (differentiation)” value (NT2 cells [2]) did it give?
**A.** could not be replicated

**Q.** What about the “NT2 cell proliferation at 50 μM” value (NT2 cells [3]) of the same compound?
**A.** significantly inhibited

**Q.** How did the “PC12 cell viability, steroid alone” value (rat PC12 neuronal cells; absence of Aβ) turn out when `CC(=O)[C@@]1(O)CC[C@H]2[C@@H]3CC=C4C[C@@H](O)CC[C@]4(C)[C@H]3CC[C@@]21C` [17α-hydroxypregnenolone, 5-pregnen-3β, 17α-diol-20-one] was run?
**A.** toxic to the cells

Source: patent US20060009433A1, “Neuroprotective spirostenol pharmaceutical compositions” (priority 2003, published 2006)
